Measured values from patent US5639751A, “N-acyl-2,3-benzodiazepine derivatives for treating acute and chronic neurodegenerative disorders” (priority 1990, dated 1997).
Like-named read-outs stand apart in the source and are kept apart here.

Experiments:
[1] = system: cats; test: Effect on spinal (polysynaptic) flexor reflexes in chloralose anaesthetized cats; assay type: in vivo; conditions: Felis catus, iv
Description: Res. Comm. 20, S1, 141 (1988)].

[2] = system: AMPA/kainate receptors; test: Inhibition of synaptic field potentials (population spikes) in rat hippocampal slices; assay type: cell-based; conditions: population spikes in CA1, after 30 min. perfusion
Method: Synaptic potentials in the CA1 area of hippocampus evoked by stimulation of the Schaffer collaterals are mediated by AMPA/kainate receptors. […] Lett. 92, 64 (1988)].
The inhibition of population spikes in CA1 was studied in rat hippocampal slices after 30 min. perfusion application of the test compounds.

[3] = system: AMPA receptors; test: Inhibition of synaptic field potentials in rat neocortex slices; assay type: cell-based
Description: Similarly as in hippocampal CA1 area, glutamate is the main excitatory transmitter in the neocortex, and dominantly AMPA receptors are involved in mediation of synaptic responses evoked by stimulation of the white matter and recorded from the area adjacent to the site of stimulation [J. Neurophysiol. 64, 1282 (1990)]. The inhibitory effect on such field potentials was studied in rat neocortex slices, maintained in Vitro, according to Fletcher et al. [Br. J. Pharmacol. 95, 585 (1988)].

[4] = system: AMPA receptor; test: Inhibition of quisqualate induced DC potentials in rat neocortex slices; assay type: cell-based
Method: The AMPA antagonist effect was tested in rat neocortex slices by using a method similar to that of Harrison and Simmonds [Br. J. Pharmacol. 84, 381 (1985)].

[5] = system: NMDA; test: NMDA induced responses (DC potentials) in rat neocortex slices; assay type: cell-based
[6] = AMPA induced spreading depression in isolated chicken retina; assay type: cell-based; conditions: AMPA (5 μM)
Method: (§1) Anti-kainate and -AMPA effects were investigated in the in vitro retinal spreading depression model [Brain Res. 607, 189 (1993)]. AMPA/kainate antagonists prolong the latency of the development of spreading depression evoked. by kainate (5 μM), or AMPA (5 μM). In some cases the effect on spreading depression evoked by 100 μM NMDA was also studied to clarify the selectivity.

[7] = Kainate induced spreading depression in isolated chicken retina; assay type: cell-based; conditions: kainate (5 μM)
Method: as §1

[8] = system: NMDA; test: NMDA evoked spreading depression in isolated chicken retina; assay type: cell-based; conditions: spreading depression evoked by 100 μM NMDA
Method: as §1

[9] = system: male CFLP mice; test: Anticonvulsive effect in mice, electroshock test; assay type: in vivo; conditions: Mus musculus, po, read-out: ED50 p.o., ES (electroshock)
Method: (§2) The anticonvulsive effect of the compounds of the formula (I) was measured by using the electroshock test [J. Pharmacol. Exp. Ther. 106, 319 (1952)], furthermore by using various chemical agents such as pentetrazole [J. Pharmacol. Exp. Ther. 108, 168 (1953)], strychnine [J. Pharmacol. Exp. Ther. 129, 75 (1960)], bemegride, nicotine and 4-aminopyridine. The test compounds were orally administered in 3 doses, to 10 male CFLP mice per dose.

[10] = system: male CFLP mice; test: Anticonvulsive effect in mice, pentetrazole; assay type: in vivo; conditions: Mus musculus, po, read-out: ED50 p.o., Pentetrazole
Method: as §2

[11] = system: male CFLP mice; test: Anticonvulsive effect in mice, strychnine; assay type: in vivo; conditions: Mus musculus, po, read-out: ED50 p.o., Strychnine
Method: as §2

[12] = system: male CFLP mice; test: Anticonvulsive effect in mice, bemegride; assay type: in vivo; conditions: Mus musculus, po, read-out: ED50 p.o., Bemegride
Method: as §2

[13] = system: male CFLP mice; test: Anticonvulsive effect in mice, nicotine; assay type: in vivo; conditions: Mus musculus, po
Method: as §2

[14] = system: male CFLP mice; test: Anticonvulsive effect in mice, 4-aminopyridine; assay type: in vivo; conditions: Mus musculus, po, read-out: ED50 p.o., 4-AP (4-aminopyridine)
Method: as §2

[15] = system: CFLP mice; test: Inclined screen test in mice; assay type: in vivo; conditions: Mus musculus, ip, read-out: ED50 i.p., inclined screen test
Description: In Randall's inclined screen test [J. Pharmacol. Exp. Ther. 129, 163 (1960)] the compounds were applied in 3 i.p. doses to 10 CFLP mice per dose.

[16] = system: mice; test: Rotarod test in mice; assay type: in vivo; conditions: Mus musculus, ip, read-out: ED50 i.p., rotarod test
Description: The rotarod test was used to measure muscular tone and motor co-ordination [J. Am. Pharm. Assoc. 46, 208 (1957)].

[17] = system: cats; test: Effects on spinal root reflex potentials in spinalized and immobilized cats; assay type: in vivo; conditions: Felis catus, iv
Method: The effect of compound of Example 15(16) on the spinal root potentials in cats was tested in spinalized and immobilized animals [Neuropharmacology 21, 161 (1989)].

[18] = system: [^3 H]-AMPA specific binding sites in CNS membrane preparations; conditions: Neuroreport 5, 93 (1993); cited from earlier work
[19] = system: [^3 H]-kainate specific binding sites in CNS membrane preparations; conditions: Neuroreport 5, 93 (1993); cited from earlier work
[20] = system: mice; test: Protection against methamphetamine-induced dopaminergic neurotoxicity, in mice; assay type: in vivo; conditions: METH 2×20 mg/kg i.p., Example 128 3×5 mg/kg i.p., MK-801 3×2.5 mg/kg i.p.; for (DOPAC + HVA)/DA, % / DA, %: % of saline group; for (DOPAC + HVA)/DA, mean ± SE: striatal dopamine turnover; for DA, μg/g tissue, mean ± SE: striatal dopamine
Method: High doses of methamphetamine (2×20 mg/kg i.p.) decrease the striatal level of dopamine, which can be prevented by glutamate antagonists, e.g. the NMDA-antagonist MK-801 [Science 243, 398 (1989)].

[21] = Acute toxicity in mice; conditions: mouse, in vivo
Method: The cause of mortality was respiratory insufficiency developing within 1 to 2 hours after i.p. administration and within 10 to 20 hours after oral application.

[22] = * <20% inhibition at the highest dose applied, read-out: ED50, DRP (dorsal root potential)
[23] = * <20% inhibition at the highest dose applied, read-out: ED50, DRR (dorsal root reflex)
[24] = read-out: ED50, MSR (monosynaptic ventral root reflex)
[25] = read-out: ED50, PSR (polysynaptic ventral root reflex)

SMILES | ED50 [1] | IC50 [2] | IC50 [6] | IC50 [7] | ED50 [9] | ED50 [10] | ED50 [11] | ED50 [13] | ED50 [15] | ED50 [16] | LD50 ([21]; ip, read-out: LD50 i.p.) | LD50 ([21]; po, read-out: LD50 p.o.) | also measured
NS(=O)(=O)c1cccc2c1c([N+](=O)[O-])cc1[nH]c(=O)c(=O)[nH]c12 [NBQX, 1,2,3,4-tetrahydro-6-nitro-2,3-dioxo-benzo(f)quinoxaline-7-sulfonamide, reference compound] | 0.91 mg/kg | – | – | – | – | – | – | – | – | – | – | – | –
CC1=NN=C(c2ccc(N)cc2)c2cc3c(cc2C1)OCO3 [GYKI 52466, 1-(4-aminophenyl)-4-methyl-7,8-methylenedioxy-5H-2,3-benzodiazepine, reference compound] | 0.9 mg/kg | 31.7 µM | 6.3 µM | 9.5 µM | 38 mg/kg | 115 mg/kg | 87 mg/kg | 70 mg/kg | 47 mg/kg | 24 mg/kg | – | – | IC50 [3]: 30 µM; Inhibition of induced field potentials in % of control ([3]; concentration 10 μM): 22%; Inhibition of induced field potentials in % of control ([3]; concentration 20 μM): 39%; Inhibition of induced field potentials in % of control ([3]; concentration 40 μM): 62%; Inhibition of induced field potentials in % of control ([3]; concentration 80 μM): 73%; Inhibition of DC-potential changes induced by perfusion of quisqualate ([4]; concentration range of 10-50 μM): dose-dependently inhibited; Effect on the responses induced by NMDA [5]: failed to affect; NMDA antagonist effect, times weaker than AMPA antagonist effect [8]: ≥ 10 times; ED50 [12]: 73 mg/kg; ED50 [14]: 43 mg/kg; ED50 [17, 22]: > 4 mg/kg; ED50 [17, 23]: > 4 mg/kg; ED50 [17, 24]: 2.2 mg/kg; ED50 [17, 25]: 2.3 mg/kg; Displacement of [3H]-AMPA from specific binding sites [18]: displace neither; Displacement of [3H]-kainate from specific binding sites [19]: displace neither
CC(=O)N1N=C(c2ccc(N)cc2)c2cc3c(cc2CC1C)OCO3 (single isomer, unassigned; (-)) [Example 128, (-)-1-(4-Aminophenyl)-3-acetyl-4-methyl-7,8-methylenedioxy-3,4-dihydro-5H-2,3-benzodiazepine] | 0.13 mg/kg | 7.8 µM | 1 µM | 2.7 µM | – | – | – | – | – | – | 73.5 mg/kg | ~100 mg/kg | ED50 ([9]; mice, p.o.): 5.3 mg/kg; ED50 ([10]; mice, p.o.): 16.8 mg/kg; ED50 ([16]; mice, i.p.): 2.3 mg/kg; (DOPAC + HVA)/DA, % [20]: 144%; DA, % [20]: 48%; (DOPAC + HVA)/DA, mean ± SE [20]: 0.36 ± 0.10; DA, μg/g tissue, mean ± SE [20]: 7.17 ± 1.89 μg/g tissue
C[C@]12N[C@H](Cc3ccccc31)c1ccccc12 [MK-801, (+)-10,11-dihydro-5-methyl-5H-dibenzo[a,d]cyclohepten-5,10-imine (Z)-2-butene-dioate, reference compound] | – | – | – | – | – | – | – | – | – | – | – | – | (DOPAC + HVA)/DA, % [20]: 132%; DA, % [20]: 66%; (DOPAC + HVA)/DA, mean ± SE [20]: 0.33 ± 0.06; DA, μg/g tissue, mean ± SE [20]: 10.01 ± 1.10 μg/g tissue
N#Cc1cc2[nH]c(=O)c(=O)[nH]c2cc1[N+](=O)[O-] [CNQX, 1,2,3,4-tetrahydro-7-nitro-2,3-dioxo-quinoxalinecarbonitrile, reference compound] | – | 1.4 µM | – | – | – | – | – | – | – | – | – | – | –
CC(=O)N1N=C(c2ccc(N)cc2)c2cc3c(cc2CC1C)OCO3 (centres unmarked) [Example 15 (16), 1-(4-Aminophenyl)-3-acetyl-4-methyl-7,8-methylenedioxy-3,4-dihydro-5H-2,3-benzodiazepine] | 0.36 mg/kg | 24.8 µM | 3.7 µM | 5.1 µM | – | – | > 200 mg/kg | 45 mg/kg | – | – | 127 mg/kg | 130 mg/kg | IC50 [3]: 21.5 µM; Inhibition of induced field potentials in % of control ([3]; concentration 10 μM): 30%; Inhibition of induced field potentials in % of control ([3]; concentration 20 μM): 47%; Inhibition of induced field potentials in % of control ([3]; concentration 40 μM): 69%; Inhibition of induced field potentials in % of control ([3]; concentration 80 μM): 82%; Activity relative to the reference compound GYKI 52466 in inhibiting the response to quisqualate ([4]; 2-minute perfusion with 10 μM of quisqualate, corresponding concentrations): twice as active; Effect on the responses induced by NMDA [5]: failed to affect; ED50 ([9]; mice, p.o.): 12 mg/kg; ED50 ([10]; mice, p.o.): 46.8 mg/kg; ED50 ([12]; mice, p.o.): 16 mg/kg; ED50 ([14]; mice, p.o.): 9 mg/kg; ED50 ([15]; mice, i.p.): 23.5 mg/kg; ED50 ([16]; mice, i.p.): 3.7 mg/kg; ED50 [17, 22]: > 1.6 mg/kg; ED50 [17, 23]: > 1.6 mg/kg; ED50 [17, 24]: 0.69 mg/kg; ED50 [17, 25]: 0.77 mg/kg
CNC(=O)N1N=C(c2ccc(N)cc2)c2cc3c(cc2CC1C)OCO3 (single isomer, unassigned; (-)) [Example 123, (-)-1-(4-Aminophenyl)-3-methylcarbamoyl-4-methyl-7,8-methylenedioxy-3,4-dihydro-5H-2,3 benzodiazepine] | 0.05 mg/kg | 3.9 µM | 1.7 µM | 0.5 µM | 8.4 mg/kg | 13.8 mg/kg | – | – | 8.8 mg/kg | 1.9 mg/kg | ~50 mg/kg | 75 to 100 mg/kg | –
CNC(=O)N1N=C(c2ccc(N)cc2)c2cc3c(cc2CC1C)OCO3 (centres unmarked) [Example 98, 1-(4-Aminophenyl)-3-methylcarbamoyl-4-methyl-7,8-methylenedioxy-3,4-dihydro-5H-2,3-benzodiazepine] | 0.14 mg/kg | 12.6 µM | – | – | 17.1 mg/kg | 21.3 mg/kg | 29 mg/kg | 19 mg/kg | 18 mg/kg | 8.6 mg/kg | 93.1 mg/kg | 96.6 mg/kg | ED50 [12]: 11 mg/kg; ED50 [14]: 13.5 mg/kg
